# In patent US20250230193A1, “CYCLIC COMPOUND HAVING SELECTIVE KRAS INHIBITORY EFFECT ON HRAS AND NRAS” (CHUGAI SEIYAKU KABUSHIKI KAISHA, priority 2022, published 2025):
# Where a SMILES comes first, the peptide text is derived from it. Bridges are numbered along the chain shown (N, C = ends). [ ]: non-standard residue; d: D form. The star is where a group is joined. hPhe(3-Cl-4-CF3) = N[C@@H](CCc1ccc(C(F)(F)F)c(Cl)c1)C(=O)O; NPrPhe(4-CF3) = CCCN[C@@H](Cc1ccc(C(F)(F)F)cc1)C(=O)O; Morpholine(3S-CO) = O=C(O)[C@@H]1COCCN1; Pip(4,4-F2) = O=C(O)[C@@H]1CC(F)(F)CCN1; NMeGly(cPent) = CN[C@H](C(=O)O)C1CCCC1; Pro(4,4-F2) = O=C(O)[C@@H]1CC(F)(F)CN1; Hyp = O=C(O)[C@@H]1C[C@@H](O)CN1; NMeD = CN[C@@H](CC(=O)O)C(=O)O; NMeL = CN[C@@H](CC(C)C)C(=O)O; Pip = O=C(O)[C@@H]1CCCCN1; Morpholide = C1CN(*)CCO1; Ac5c = NC1(C(=O)O)CCCC1; Aze = O=C(O)[C@@H]1CCN1; Ac4c = NC1(C(=O)O)CCC1; NPrGly = CCCNCC(=O)O; Sar = CNCC(=O)O
# Tests used:
# [1] = target: GDP-bound NRAS wild-type protein (Homo sapiens, UniProt P01111); assay: Binding to NRAS by surface plasmon resonance (SPR), Single Cycle Kinetics; details: KD ratio NRAS/KRAS, SPR
# Chain of GDP-bound NRAS wild-type protein (P01111 whole entry): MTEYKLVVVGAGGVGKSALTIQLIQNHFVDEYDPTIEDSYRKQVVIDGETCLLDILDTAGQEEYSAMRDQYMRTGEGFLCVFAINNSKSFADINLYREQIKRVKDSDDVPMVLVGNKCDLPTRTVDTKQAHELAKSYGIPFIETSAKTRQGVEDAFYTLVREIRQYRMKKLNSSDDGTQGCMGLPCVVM
# [2] = target: GDP-bound HRAS wild-type protein (Homo sapiens, UniProt P01112); assay: Binding to HRAS by surface plasmon resonance (SPR), Single Cycle Kinetics; details: KD ratio HRAS/KRAS, SPR
# Chain of GDP-bound HRAS wild-type protein (P01112 whole entry): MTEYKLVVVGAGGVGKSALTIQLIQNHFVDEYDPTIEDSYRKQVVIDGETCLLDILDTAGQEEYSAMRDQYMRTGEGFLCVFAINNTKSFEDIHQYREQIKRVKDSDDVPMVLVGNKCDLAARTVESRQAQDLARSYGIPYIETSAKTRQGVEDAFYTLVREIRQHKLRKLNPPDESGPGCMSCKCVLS
SMILES,NRAS/KRAS (ratio of KD for GDP-bound NRAS wild-type to KD for KRAS) [1],HRAS/KRAS (ratio of KD for GDP-bound HRAS wild-type to KD for KRAS) [2]
CCCN1C(=O)CN(C)C(=O)[C@@H]2CCN2C(=O)[C@H]([C@@H](C)CC)NC(=O)[C@H](CC(C)C)N(C)C(=O)C[C@@H](C(=O)N2CCOCC2)N(C)C(=O)[C@H](C2CCCC2)N(C)C(=O)C2(CCCC2)NC(=O)[C@@H]2C[C@@H](OC)CN2C(=O)[C@H](CCc2ccc(C(F)(F)F)c(Cl)c2)NC(=O)CN(C)C(=O)[C@@H]1Cc1ccc(C(F)(F)F)cc1 [PP0309] ([NMeL]I[Aze][Sar][NPrPhe(4-CF3)][Sar][hPhe(3-Cl-4-CF3)][Hyp](Me)[Ac5c][NMeGly(cPent)][NMeD]-Morpholide; lactam N-11),B (a compound having 3 or more and less than 10 is denoted as B),B (a compound having 3 or more and less than 10 is denoted as B)
CCCN1C(=O)CN(C)C(=O)[C@@H]2CCN2C(=O)[C@H]([C@@H](C)CC)NC(=O)[C@H](CC(C)C)N(C)C(=O)C[C@@H](C(=O)N2CCOCC2)N(C)C(=O)[C@H](C2CCCC2)N(C)C(=O)C2(CCCC2)NC(=O)[C@@H]2C[C@@H](OCC)CN2C(=O)[C@H](CCc2ccc(C(F)(F)F)c(Cl)c2)NC(=O)CN(C)C(=O)[C@@H]1Cc1ccc(C(F)(F)F)cc1 [PP0310] ([NMeL]I[Aze][Sar][NPrPhe(4-CF3)][Sar][hPhe(3-Cl-4-CF3)][Hyp](Et)[Ac5c][NMeGly(cPent)][NMeD]-Morpholide; lactam N-11),B (a compound having 3 or more and less than 10 is denoted as B),C (A compound having a KD ratio of 0.1 or more and less than 3 is denoted as C)
CCCN1C(=O)CN(C)C(=O)[C@@H]2CCN2C(=O)[C@H]([C@@H](C)CC)NC(=O)[C@H](CC(C)C)N(C)C(=O)C[C@@H](C(=O)N2CCOCC2)N(C)C(=O)[C@H](C2CCCC2)N(C)C(=O)C2(CCCC2)NC(=O)[C@@H]2CCCCN2C(=O)[C@H](CCc2ccc(C(F)(F)F)c(Cl)c2)NC(=O)CN(C)C(=O)[C@@H]1Cc1ccc(C(F)(F)F)cc1 [PP0311] ([NMeL]I[Aze][Sar][NPrPhe(4-CF3)][Sar][hPhe(3-Cl-4-CF3)][Pip][Ac5c][NMeGly(cPent)][NMeD]-Morpholide; lactam N-11),B (a compound having 3 or more and less than 10 is denoted as B),B (a compound having 3 or more and less than 10 is denoted as B)
"CCCN1C(=O)CN(C)C(=O)[C@@H]2CCN2C(=O)[C@H]([C@@H](C)CC)NC(=O)[C@H](CC(C)C)N(C)C(=O)C[C@@H](C(=O)N2CCOCC2)N(C)C(=O)[C@H](C2CCCC2)N(C)C(=O)C2(CCCC2)NC(=O)[C@@H]2CC(F)(F)CCN2C(=O)[C@H](CCc2ccc(C(F)(F)F)c(Cl)c2)NC(=O)CN(C)C(=O)[C@@H]1Cc1ccc(C(F)(F)F)cc1 [PP0312] ([NMeL]I[Aze][Sar][NPrPhe(4-CF3)][Sar][hPhe(3-Cl-4-CF3)][Pip(4,4-F2)][Ac5c][NMeGly(cPent)][NMeD]-Morpholide; lactam N-11)",B (a compound having 3 or more and less than 10 is denoted as B),B (a compound having 3 or more and less than 10 is denoted as B)
CCCN1C(=O)CN(C)C(=O)[C@@H]2CCN2C(=O)[C@H]([C@@H](C)CC)NC(=O)[C@H](CC(C)C)N(C)C(=O)C[C@@H](C(=O)N2CCOCC2)N(C)C(=O)[C@H](C2CCCC2)N(C)C(=O)C2(CCCC2)NC(=O)[C@@H]2COCCN2C(=O)[C@H](CCc2ccc(C(F)(F)F)c(Cl)c2)NC(=O)CN(C)C(=O)[C@@H]1Cc1ccc(C(F)(F)F)cc1 [PP0313] ([NMeL]I[Aze][Sar][NPrPhe(4-CF3)][Sar][hPhe(3-Cl-4-CF3)][Morpholine(3S-CO)][Ac5c][NMeGly(cPent)][NMeD]-Morpholide; lactam N-11),B (a compound having 3 or more and less than 10 is denoted as B),C (A compound having a KD ratio of 0.1 or more and less than 3 is denoted as C)
CCCN1C(=O)CN(C)C(=O)[C@@H]2CCN2C(=O)[C@H]([C@@H](C)CC)NC(=O)[C@H](CC(C)C)N(C)C(=O)C[C@@H](C(=O)N2CCOCC2)N(C)C(=O)[C@H](C2CCCC2)N(C)C(=O)C2(CCCC2)NC(=O)CN(C)C(=O)[C@H](CCc2ccc(C(F)(F)F)c(Cl)c2)NC(=O)CN(C)C(=O)[C@@H]1Cc1ccc(C(F)(F)F)cc1 [PP0314] ([NMeL]I[Aze][Sar][NPrPhe(4-CF3)][Sar][hPhe(3-Cl-4-CF3)][Sar][Ac5c][NMeGly(cPent)][NMeD]-Morpholide; lactam N-11),B (a compound having 3 or more and less than 10 is denoted as B),C (A compound having a KD ratio of 0.1 or more and less than 3 is denoted as C)
CCCN1CC(=O)NC2(CCCC2)C(=O)N(C)[C@@H](C2CCCC2)C(=O)N(C)[C@H](C(=O)N2CCOCC2)CC(=O)N(C)[C@@H](CC(C)C)C(=O)N[C@@H]([C@@H](C)CC)C(=O)N2CC[C@H]2C(=O)N(C)CC(=O)N(CCC)[C@@H](Cc2ccc(C(F)(F)F)cc2)C(=O)N(C)CC(=O)N[C@@H](CCc2ccc(C(F)(F)F)c(Cl)c2)C1=O [PP0315] ([NMeL]I[Aze][Sar][NPrPhe(4-CF3)][Sar][hPhe(3-Cl-4-CF3)][NPrGly][Ac5c][NMeGly(cPent)][NMeD]-Morpholide; lactam N-11),B (a compound having 3 or more and less than 10 is denoted as B),B (a compound having 3 or more and less than 10 is denoted as B)
CC[C@H](C)[C@@H]1NC(=O)[C@H](CC(C)C)N(C)C(=O)C[C@@H](C(=O)N2CCOCC2)N(C)C(=O)[C@H](C2CCCC2)N(C)C(=O)C2(CCCC2)NC(=O)[C@@H]2CCCN2C(=O)[C@H](CCc2ccc(C(F)(F)F)c(Cl)c2)NC(=O)CN(C)C(=O)[C@H](Cc2ccc(C)cc2)N2CCCC[C@@H](C2=O)N(C)C(=O)CN(C)C1=O [PP0316],C (A compound having a KD ratio of 0.1 or more and less than 3 is denoted as C),B (a compound having 3 or more and less than 10 is denoted as B)
CC[C@H](C)[C@@H]1NC(=O)[C@H](CC(C)C)N(C)C(=O)C[C@@H](C(=O)N2CCOCC2)N(C)C(=O)[C@H](C2CCCC2)N(C)C(=O)C2(CCCC2)NC(=O)[C@@H]2CCCN2C(=O)[C@H](CCc2ccc(C(F)(F)F)c(Cl)c2)NC(=O)CN(C)C(=O)[C@H](Cc2ccc(C)cc2)N2CCCCC[C@@H](C2=O)N(C)C(=O)CN(C)C1=O [PP0317],B (a compound having 3 or more and less than 10 is denoted as B),B (a compound having 3 or more and less than 10 is denoted as B)
CC[C@H](C)[C@@H]1NC(=O)[C@H](CC(C)C)N(C)C(=O)C[C@@H](C(=O)N2CCOCC2)N(C)C(=O)[C@H](C2CCCC2)N(C)C(=O)C2(CCCC2)NC(=O)[C@@H]2CCCN2C(=O)[C@H](CCc2ccc(C(F)(F)F)c(Cl)c2)NC(=O)CN(C)C(=O)[C@H](Cc2ccc(C(F)(F)F)cc2)N2CCCC[C@@H](C2=O)N(C)C(=O)CN(C)C1=O [PP0318],B (a compound having 3 or more and less than 10 is denoted as B),B (a compound having 3 or more and less than 10 is denoted as B)
CCCN1C(=O)CN(C)C(=O)CN(C)C(=O)[C@H]([C@@H](C)CC)NC(=O)[C@H](CC(C)C)N(C)C(=O)C[C@@H](C(=O)N2CCOCC2)NC(=O)[C@H](C2CCCC2)N(C)C(=O)C2(CCC2)NC(=O)[C@@H]2CCCN2C(=O)[C@H](CCc2ccc(C(F)(F)F)c(Cl)c2)NC(=O)CN(C)C(=O)[C@@H]1Cc1ccc(C(F)(F)F)cc1 [PP0320] ([NMeL]I[Sar][Sar][NPrPhe(4-CF3)][Sar][hPhe(3-Cl-4-CF3)]P[Ac4c][NMeGly(cPent)]D-Morpholide; lactam N-11),B (a compound having 3 or more and less than 10 is denoted as B),B (a compound having 3 or more and less than 10 is denoted as B)
"CCCN1C(=O)CN(C)C(=O)CN(C)C(=O)[C@H]([C@@H](C)CC)NC(=O)[C@H](CC(C)C)N(C)C(=O)C[C@@H](C(=O)N2CCOCC2)NC(=O)[C@H](C2CCCC2)N(C)C(=O)C2(CCCC2)NC(=O)[C@@H]2CC(F)(F)CN2C(=O)[C@H](CCc2ccc(C(F)(F)F)c(Cl)c2)NC(=O)CN(C)C(=O)[C@@H]1Cc1ccc(C(F)(F)F)cc1 [PP0321] ([NMeL]I[Sar][Sar][NPrPhe(4-CF3)][Sar][hPhe(3-Cl-4-CF3)][Pro(4,4-F2)][Ac5c][NMeGly(cPent)]D-Morpholide; lactam N-11)",B (a compound having 3 or more and less than 10 is denoted as B),B (a compound having 3 or more and less than 10 is denoted as B)
"CCCN1C(=O)CN(C)C(=O)CN(C)C(=O)[C@H]([C@@H](C)CC)NC(=O)[C@H](CC(C)C)N(C)C(=O)C[C@@H](C(=O)N2CCOCC2)NC(=O)[C@H](C2CCCC2)N(C)C(=O)C2(CCC2)NC(=O)[C@@H]2CC(F)(F)CN2C(=O)[C@H](CCc2ccc(C(F)(F)F)c(Cl)c2)NC(=O)CN(C)C(=O)[C@@H]1Cc1ccc(C(F)(F)F)cc1 [PP0322] ([NMeL]I[Sar][Sar][NPrPhe(4-CF3)][Sar][hPhe(3-Cl-4-CF3)][Pro(4,4-F2)][Ac4c][NMeGly(cPent)]D-Morpholide; lactam N-11)",B (a compound having 3 or more and less than 10 is denoted as B),C (A compound having a KD ratio of 0.1 or more and less than 3 is denoted as C)
CCCN1C(=O)CN(C)C(=O)CN(C)C(=O)[C@H]([C@@H](C)CC)NC(=O)[C@H](CC(C)C)N(C)C(=O)C[C@@H](C(=O)N2CCOCC2)NC(=O)[C@H](C2CCCC2)N(C)C(=O)C2(CCCC2)NC(=O)[C@@H]2C[C@@H](OCC)CN2C(=O)[C@H](CCc2ccc(C(F)(F)F)c(Cl)c2)NC(=O)CN(C)C(=O)[C@@H]1Cc1ccc(C(F)(F)F)cc1 [PP0323] ([NMeL]I[Sar][Sar][NPrPhe(4-CF3)][Sar][hPhe(3-Cl-4-CF3)][Hyp](Et)[Ac5c][NMeGly(cPent)]D-Morpholide; lactam N-11),B (a compound having 3 or more and less than 10 is denoted as B),B (a compound having 3 or more and less than 10 is denoted as B)
